# In patent publication US20140220556A1, “Method of Design and Synthesis of a New Drug” (priority 2013, published 2014):
# Tests used:
# HeLa cells = assay: Effect of Antican on HeLa cells; format: cell-based
# Text: In establishing the minimum concentration of Antican that could slow the growth of cells, a comparison was made between the number of surviving cells and the concentration of Antican in the solution.
# [1] = test system: Ehrlich's ascites adenocarcinoma; assay: Antitumor activity in Ehrlich's ascites adenocarcinoma; format: in vivo, Barbados mice; details: experimental animals, n = 10
# Method: The antitumor activity of the compositions were studied in models of Ehrlich's ascites carcinoma in young Barbados mice of both sexes with weights between 15-17 g (68 individuals), which were kept on a vivarium diet.
# 45 mice were inoculated from a mouse with adenocarcinoma using an insulin syringe with 0.1 mL ascitic fluid in the region of the liver.
# Ten mice were administered Antican (see Table 8).
# benzidine skin sarcoma = assay: Anticancer activity on benzidine skin sarcoma; format: in vivo, Barbados mice
# Method: Before applying it to the silica gel, 7 mL of a solution of 2% benzidine and 0.9% sodium chloride were added until an opalescent suspension was formed (1 g silica gel for 5 mL NaCl solution). Twenty-five Barbados mice of both sexes with weight of 18-20 g that were kept on a vivarium diet were administered benzidine and phorbol acetate immobilized on silica gel subcutaneously near the neck. After two weeks, 18 animals had developed tumors of different sizes in the form of a small bump on the neck near the silica gel granulomas. Each group of animals was administered the corresponding compound parenterally, at a dose of 100 μg/kg weight, twice a day for two weeks, starting 16 days after administration of the carcinogen.
# [2] = FDA statistics, third stage of clinical tests; cited from earlier work
Structure (SMILES),"Number of Live Cells after Incubation, % (HeLa cells; dose 2 μg/mL)","Number of Live Cells after Incubation, ±1000 (HeLa cells; dose 2 μg/mL)","Number of Live Cells after Incubation, % (HeLa cells; dose 4 μg/mL)","Number of Live Cells after Incubation, ±1000 (HeLa cells; dose 4 μg/mL)","Number of Live Cells after Incubation, % (HeLa cells; dose 6 μg/mL)","Number of Live Cells after Incubation, ±1000 (HeLa cells; dose 6 μg/mL)","Number of Live Cells after Incubation, % (HeLa cells; dose 8 μg/mL)","Number of Live Cells after Incubation, ±1000 (HeLa cells; dose 8 μg/mL)","Number of Live Cells after Incubation, % (HeLa cells; dose 10 μg/mL)","Number of Live Cells after Incubation, ±1000 (HeLa cells; dose 10 μg/mL)","Number of Live Cells after Incubation, % (HeLa cells; dose 12 μg/mL)","Number of Live Cells after Incubation, ±1000 (HeLa cells; dose 12 μg/mL)","Time of Death of Animals after the First Injection, Average Value ([1]; Liposomes +)","Time of Death of Animals after the First Injection, Average Value ([1]; Liposomes −)","Weight of Animal, After Treatment (benzidine skin sarcoma; 100 μg/kg parenterally twice a day for two weeks, n = 7)","mice died (benzidine skin sarcoma; after treatment, n = 7)","Weight of Animal, Before Treatment (benzidine skin sarcoma; before treatment, n = 7)","Animal Survival (benzidine skin sarcoma; benzidine skin sarcoma, n = 10)",average effectiveness [2]
CC(=O)O[C@@]12CO[C@@H]1C[C@H](O)[C@@]1(C)C(=O)[C@H](O)C3=C(C)[C@@H](OC(=O)[C@H](O)[C@@H](NC(=O)OC(C)(C)C)c4ccccc4)C[C@@](O)([C@@H](OC(=O)c4ccccc4)[C@H]21)C3(C)C [Taxotere],100%,150000 Millions,98%,150000 Millions,97%,145000 Millions,89%,135000 Millions,82%,130000 Millions,94%,153000 Millions,15 ± 0.5 days,14 ± 0.12 days,23 ± 1.1 g,2,28 ± 1.2 g,28 ± 1.1 days,
CN1CC[C@]23c4c5ccc(O)c4O[C@H]2[C@@H](O)C=C[C@H]3[C@H]1C5 [morphine],,,,,,,,,,,,,,,,,,,75%
